Series [1] is described as follows: Solubility in 0.01 M sodium phosphate buffer at pH = 7.4. It counts as physicochemical.
Series [2] has as its target T1, Neutrophil elastase (Homo sapiens, UniProt P08246).
T1 sequence (P08246 whole entry): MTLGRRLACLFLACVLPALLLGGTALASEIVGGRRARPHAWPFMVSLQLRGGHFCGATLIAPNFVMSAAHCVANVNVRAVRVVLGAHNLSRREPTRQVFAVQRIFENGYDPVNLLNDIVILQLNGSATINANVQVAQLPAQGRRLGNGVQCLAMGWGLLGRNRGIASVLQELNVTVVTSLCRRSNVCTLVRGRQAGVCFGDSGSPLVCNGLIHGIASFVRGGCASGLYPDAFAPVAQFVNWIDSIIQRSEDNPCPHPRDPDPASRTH
The series can be described thus: Inhibition of Human Neutrophil Elastase-catalyzed hydrolysis of the synthetic substrate MeO-Suc-Ala-Ala-Pro-Val-p- nitroanilide.

This passage reports solubility and Ki results from ChEMBL document CHEMBL1129513, “Nonpeptidic inhibitors of human neutrophil elastase. 7. Design, synthesis, and in vitro activity of a series of pyridopyrimidine trifluoromethyl ketones” (J Med Chem, 1996).

Usually solubility stands for the dissolved amount per volume that the medium holds. What is called Ki is the dissociation constant of the complex between target and ligand, obtained from inhibition or displacement. The low end stands for tighter binding, the high end for weaker binding.

Converted amounts (≈) assume the structure as drawn.

With `CCOCCn1c(=O)[nH]c2c(=O)n(CC(=O)NC(C(=O)C(F)(F)F)C(C)C)c(-c3ccccc3)cc2c1=O` (centres undefined), the concentration in solution in series [1] (solubility) was 8 µg/mL (≈ 14.9 µM). Affinity in series [2] was put at a Ki of 7.5 nM.
`COc1ccc(Cn2c(=O)[nH]c3c(=O)n(CC(=O)NC(C(=O)C(F)(F)F)C(C)C)ccc3c2=O)cc1` (centres undefined) registered a Ki in series [2] of 100 nM.
Consider `CC(C)C(NC(=O)Cn1c(-c2ccccc2)cc2c(O)nc(O)nc2c1=O)C(=O)C(F)(F)F` (centres undefined), for which the concentration in solution in series [1] (solubility) was 220 µg/mL (≈ 474 µM). This compound also showed a Ki in series [2] of 15 nM.
`CC(C)C(NC(=O)Cn1ccc2c(=O)n(C(C)(C)Cc3ccccc3)c(=O)[nH]c2c1=O)C(=O)C(F)(F)F` (centres undefined) had a Ki in series [2] of 16 nM.
On the same count and under the same terms, to `COC(=O)Cn1c(=O)[nH]c2c(=O)n(CC(=O)N[C@@H](C(=O)C(F)(F)F)C(C)C)ccc2c1=O` belongs 490 nM; to `CC(C)C(NC(=O)Cn1ccc2c(=O)n(Cc3cccc4ccccc34)c(=O)[nH]c2c1=O)C(=O)C(F)(F)F` (centres undefined), 26 nM.
Same read-out and setting: to `CC(C)C(NC(=O)Cn1ccc2c(=O)n(CCc3ccccc3)c(=O)[nH]c2c1=O)C(=O)C(F)(F)F` (centres undefined) belongs 42 nM.
`CC(=O)Cn1c(=O)[nH]c2c(=O)n(CC(=O)NC(C(=O)C(F)(F)F)C(C)C)ccc2c1=O` (centres undefined): the affinity in series [2], expressed as Ki, was 310 nM.
Still for that read-out and setting: to `CC(C)C(NC(=O)Cn1ccc2c(=O)n(CCN3CCOCC3)c(=O)[nH]c2c1=O)C(=O)C(F)(F)F` (centres undefined) belongs 330 nM.
Compound `COC(Cn1c(=O)[nH]c2c(=O)n(CC(=O)NC(C(=O)C(F)(F)F)C(C)C)c(-c3ccccc3)cc2c1=O)OC` (centres undefined) displayed a solubility in series [1] of 420 µg/mL (≈ 760 µM). In addition, in series [2], the Ki turned out to be 12 nM.
Take `CC(C)C(NC(=O)Cn1ccc2c(=O)n(CCc3cccc4ccccc34)c(=O)[nH]c2c1=O)C(=O)C(F)(F)F` (centres undefined): affinity in series [2] was put at a Ki of 21 nM.
Still for that read-out and setting: to `CC(C)C(NC(=O)Cn1ccc2c(=O)n(C)c(=O)[nH]c2c1=O)C(=O)C(F)(F)F` (centres undefined) belongs 620 nM.
In series [1], `CC(C)C(NC(=O)Cn1ccc2c(=O)[nH]c(=O)[nH]c2c1=O)C(=O)C(F)(F)F` (centres undefined) came in with a solubility greater than 5000 µg/mL. Moreover, the affinity in series [2], expressed as Ki, was 910 nM.
As to `CC(C)C(NC(=O)Cn1ccc2c(=O)n([C@H]3C[C@@H]3c3ccccc3)c(=O)[nH]c2c1=O)C(=O)C(F)(F)F` (some centres undefined), the Ki in series [2] turned out to be 230 nM.
In series [1], `CC(C)C(NC(=O)Cn1c(-c2ccccc2)cc2c(=O)n(CCN3CCOCC3)c(=O)[nH]c2c1=O)C(=O)C(F)(F)F` (centres undefined) showed a solubility of 300 µg/mL (≈ 519 µM). Also, the inhibitory constant (Ki) in series [2] worked out at 8.4 nM.
For the compound `CC(C)C(NC(=O)Cn1ccc2c(=O)n(-c3ccccc3)c(=O)[nH]c2c1=O)C(=O)C(F)(F)F` (centres undefined), the affinity in series [2] corresponds to a Ki of 830 nM.
Take `CC(C)C(NC(=O)Cn1c(-c2ccccc2)cc2c(=O)n(N(C)C)c(=O)[nH]c2c1=O)C(=O)C(F)(F)F` (centres undefined): in series [1], the solubility came out at 320 µg/mL (≈ 631 µM). The affinity in series [2], expressed as Ki, was 19 nM.
`CC(C)C(NC(=O)Cn1c(-c2ccccc2)cc2c(=O)n(CC(=O)NCc3ccccc3)c(=O)[nH]c2c1=O)C(=O)C(F)(F)F` (centres undefined) came in with a Ki in series [2] of 9.9 nM.
`CC(C)C(NC(=O)Cn1cccc(NC(=O)OCc2ccccc2)c1=O)C(=O)C(F)(F)F` (centres undefined) had a solubility in series [1] of 110 µg/mL (≈ 243 µM).
Consider `CC(C)[C@@H](NC(=O)Cn1c(-c2ccccc2)cc2c(=O)n(CC(=O)OCc3ccccc3)c(=O)[nH]c2c1=O)C(=O)C(F)(F)F`, for which the affinity in series [2], expressed as Ki, was 2.8 nM.
In series [1], `CNC(=O)Cn1c(=O)[nH]c2c(=O)n(CC(=O)NC(C(=O)C(F)(F)F)C(C)C)c(-c3ccccc3)cc2c1=O` (centres undefined) came in with a solubility of 100 µg/mL (≈ 187 µM). For the same compound, the Ki in series [2] amounted to 22 nM.
The corresponding values for `CC(C)C(NC(=O)Cn1c(-c2ccccc2)cc2c(=O)n(C)c(=O)[nH]c2c1=O)C(=O)C(F)(F)F` (centres undefined) are 44 µg/mL (≈ 92 µM) and 10 nM.
In series [1], `COc1ccc(Cn2c(=O)[nH]c3c(=O)n(CC(=O)NC(C(=O)C(F)(F)F)C(C)C)c(-c4ccccc4)cc3c2=O)cc1` (centres undefined) registered a solubility of 230 µg/mL (≈ 393 µM). Moreover, affinity in series [2] was put at a Ki of 5.7 nM.
Regarding `CC(C)[C@@H](NC(=O)Cn1ccc2c(=O)n(CC(=O)OC(C)(C)C)c(=O)[nH]c2c1=O)C(=O)C(F)(F)F`, the affinity in series [2] corresponds to a Ki of 290 nM.
`CC(C)C(NC(=O)Cn1ccc2c(=O)n(Cc3ccccc3)c(=O)[nH]c2c1=O)C(=O)C(F)(F)F` (centres undefined) registered a solubility in series [1] of 730 µg/mL (≈ 1530 µM). This compound also yielded a Ki in series [2] of 160 nM.
The compound `CC(C)[C@@H](NC(=O)Cn1ccc2c(=O)n(CC(=O)O)c(=O)[nH]c2c1=O)C(=O)C(F)(F)F` had a Ki in series [2] of 690 nM.
As to `CC(C)[C@@H](NC(=O)Cn1c(-c2ccccc2)cc2c(=O)n(CC(N)=O)c(=O)[nH]c2c1=O)C(=O)C(F)(F)F`, the concentration in solution in series [1] (solubility) came to 130 µg/mL (≈ 249 µM). In series [2], the Ki worked out at 15 nM.
In turn, `CC(C)C(NC(=O)Cn1ccc2c(=O)n(CC(=O)c3ccccc3)c(=O)[nH]c2c1=O)C(=O)C(F)(F)F` (centres undefined) displayed a Ki in series [2] of 74 nM.
